Experimental data taken from patent US8507411B2, “Neoglycorandomization and digitoxin analogs” (priority 2004, dated 2013).
Where two headings read alike, the source gives them in different places.

Legend:
[1] = system: Du145; assay: High-throughput calcein AM cytotoxicity assay, Du145; assay type: cell-based, human; conditions: read-out: IC50, Du145
Text: (§1) Standard errors are depicted with error bars.

[2] = system: Hep3B; assay: High-throughput calcein AM cytotoxicity assay, Hep3B; assay type: cell-based, human; conditions: Hep 3B cells, read-out: IC50, Hep 3B
Text: as §1

[3] = system: NCI-H460; assay: High-throughput calcein AM cytotoxicity assay, NCI-H460; assay type: cell-based, human; conditions: read-out: IC50, NCI-H460
Text: as §1

[4] = molecular target: Na+/K+-ATPase (Cricetulus griseus, UniProt A0A8C2N4Z0); assay: Non-radioactive rubidium ion uptake assay, CHO-K1 cells; assay type: cell-based, hamster; conditions: read-out: Na+/K+-ATPase Inhibition IC50
Description: (§2) Na/K-ATPase Assays. Inhibition of Na^+/K^+-ATPase on HEK-293 cells and CHO-K1 cells by the library hits was determined by Aurora Biomed, Inc. using a high-throughput non-radioactive rubidium ion uptake assay. Experiments were conducted in duplicate using three different concentrations. Within each experiment, percent inhibition values at the three concentrations were expressed as the percent reduction of the maximum absorption signal observed for a 0 nM control. IC50 values were determined using the following formula: IC50=[(50−low %)/(high %−low %)]×(high conc.−low conc.)+low conc.
(§3) To assess how these structural modifications impact the ability of library members to inhibit Na^+/K^+-ATPases, a fundamental activity of cardiac glycosides (Paula, S., et al., (2005) Biochemistry 44, 498-510), library hits 5β, 15β, 23β, 27β, 33β, 40β, and digitoxin (1) were submitted to a non-radioactive rubidium uptake assay to gauge Na^+/K^+-ATPase inhibition in both […] human embryonic kidney cells and CHO-K1 hamster ovary cells (Gill, S. et al., (2004) ASSAY and Drug Development Technologies 2, 535-542).

[5] = system: MCF7; assay: High-throughput calcein AM cytotoxicity assay, MCF7; assay type: cell-based, human; conditions: read-out: IC50, MCF7
Text: as §1

[6] = molecular target: T1, Na+/K+-ATPase (Homo sapiens, UniProt P05023); assay: Non-radioactive rubidium ion uptake assay, HEK-293 cells; assay type: cell-based; conditions: read-out: Na+/K+-ATPase Inhibition IC50
T1 construct: endogenous in cells; host or cells: HEK-293
Description: as §2, §3

[7] = system: nine human cancer cell lines and a mouse mammary normal epithelial control line; assay: High-throughput calcein AM cytotoxicity assay, whole cell line panel
Text: In the assay, live cells were distinguished by the presence of a ubiquitous intracellular enzymatic activity which converts the non-fluorescent cell-permeable molecule calcein AM to the intensely fluorescent molecule calcein, which is retained within live cells. The IC50 value for each library member represents at least six replicates of dose-response experiments conducted over five concentrations using two-fold dilutions. […] Standard errors are depicted with error bars. Numerical values and corresponding error values can be found in Table 4. Du145: […]; MCF7: human breast carcinoma; HCT-116: human colon carcinoma, Hep3B: human liver carcinoma; SF-268: human CNS glioblastoma; SK-OV-3: human ovary adenocarcinoma; NCI-H460: human lung carcinoma; A549: human lung adenocarcinoma; NCI/ADR-RES: human breast carcinoma; NmuMG: mouse mammary normal epithelial.
Cell Culture: All cell lines except NmuMG were maintained in RPMI 1640 medium from InVitrogen (Cat No. 11875-085) supplemented with 10% w/v fetal bovine serum (FBS) from ICN (Cat No. 2916154) and penicillin-streptomycin (PS) (100 U/mL and 100 μg/mL) from InVitrogen (Cat No. 15140-122). NmuMG cells were maintained in DMEM medium from InVitrogen (Cat No. 11965-084) supplemented with 10% w/v fetal bovine serum (FBS) from ICN (Cat No. 2916154), 10 μg/ml insulin (InVitrogen Cat No 12585-014), and penicillin-streptomycin (PS) (100 U/mL and 100 μg/mL) from InVitrogen (Cat No. 15140-122). Cells were harvested by trypsinization using 0.25% w/v trypsin and 0.1% w/v EDTA from InVitrogen (Cat No. 15-050-057) and then counted in a hemocytometer in duplicate with better than 10% agreement in field counts. Cells were plated at a cell density of 10,000-15,000 cells/well of each Corning Costar 96-well black tissue culture treated microtiter plate (Fisher Cat No. 07-200-627). Cells were grown for 1 h at 37° C., with 5% CO2 in a humidified incubator to allow cell attachment to occur before compound addition.
Library Member Handling and Preparation for Cytotoxicity Assays: Library members were stored at −20° C. under dessicating conditions before the assay. Library member stocks (100×) were prepared in Corning Costar polypropylene 96-well V-bottom polypropylene microtiter plates (Fisher Cat No. 07-200-695). Five serial 1:2 dilutions were made with anhydrous DMSO at 100× the final concentration used in the assay.
Library Member Addition: The library member-containing plates were diluted 1:10 with complete cell culture media. The 10× stocks (10 μL) were added to the attached cells using a Biomek FX liquid handler (Beckman-Coulter). Library member stocks (10 μL) were added to 90 μL of cells in each plate to insure full mixing of stocks with culture media using a Beckman FX liquid handler with 96-well head.
Determination of Cytotoxicity: Cells were incubated with the library members for 72 h before fluorescence reading. Test plates were removed from the incubator and washed 1× in sterile PBS to remove serum containing calcium esterases. Calcein AM reagent (30 μL, […]) was added and the cells were incubated for 30 min at 37° C. Plates were read for emission using a fluorescein filter (excitation 485 nm, emission 535 nm).
IC50 Calculation: For each library member, at least six dose response experiments were conducted. […] To calculate IC50, percent inhibitions were plotted as a function of log [concentration] and then fit to a four-parameter logistic model that allowed for a variable Hill slope using XLfit 4.1.
Cytotoxicity Assays. All cell lines except NmuMG were maintained in RPMI 1640 medium supplemented with 10% w/v fetal bovine serum (FBS) and penicillin-streptomycin (PS) (100 U/mL and 100 μg/mL).

| Structure (SMILES) | IC50 ([1]; Du145 cells) [µM] | IC50 [2] [µM] | IC50 ([3]; NCI-H460 cells) [µM] | IC50 [4] [µM] | IC50 ([5]; MCF7 cells) [µM] | IC50 [6] [µM] | cytotoxicity (in words) ([7]; cell line panel, 72 h, calcein AM) | IC50 ([1]; Homo sapiens, DU-145, Du145 cells) [µM] | IC50 ([2]; Homo sapiens, Hep3B) [µM] | IC50 ([7]; Homo sapiens, read-out: average IC50) [µM] | IC50 ([3]; Homo sapiens, NCI-H460, NCI-H460 cells) [µM] | IC50 ([5]; Homo sapiens, MCF7, MCF7 cells) [µM] | IC50 ([7]; range over cell lines) [µM] |
| --- | --- | --- | --- | --- | --- | --- | --- | --- | --- | --- | --- | --- | --- |
| CON([C@H]1CC[C@@]2(C)[C@H](CC[C@@H]3[C@@H]2CC[C@]2(C)[C@@H](C4=CC(=O)OC4)CC[C@]32O)C1)[C@@H]1O[C@H](CO)[C@@H](O)[C@H](O)[C@@H]1O [27β, D-mannoside] | 1.3 | 0.4 | 0.7 | > 300 | 1.7 | > 200 | – | – | – | – | – | – | – |
| CON([C@H]1CC[C@@]2(C)[C@H](CC[C@@H]3[C@@H]2CC[C@]2(C)[C@@H](C4=CC(=O)OC4)CC[C@]32O)C1)[C@H]1OC[C@H](O)[C@@H](O)[C@@H]1O [23β, L-xyloside] | 0.62 | 0.5 | 0.08 | > 500 | 0.23 | > 300 | significantly more potent than digitoxin against some cell lines | – | – | – | – | – | – |
| C[C@H]1O[C@@H](O[C@H]2[C@@H](O)C[C@H](O[C@H]3[C@@H](O)C[C@H](O[C@H]4CC[C@@]5(C)[C@H](CC[C@@H]6[C@@H]5CC[C@]5(C)[C@@H](C7=CC(=O)OC7)CC[C@]65O)C4)O[C@@H]3C)O[C@@H]2C)C[C@H](O)[C@@H]1O [digitoxin] | – | – | – | – | – | 75.4 ± 0.5 | – | 0.26 | 0.22 | ~0.44 | 0.28 | 0.32 | – |
| CON([C@H]1CC[C@@]2(C)[C@H](CC[C@@H]3[C@@H]2CC[C@]2(C)[C@@H](C4=CC(=O)OC4)CC[C@]32O)C1)[C@H]1OC[C@H](O)[C@H](O)[C@@H]1O [5β, L-riboside] | 0.3 | 0.059 | 0.053 | 270 | 0.19 | > 300 | – | – | – | – | – | – | 0.018 to 0.059 |
